Data taken from patent publication US4247712A, “Preservation of aqueous systems with 2-chloro-3-oxobutyramide derivatives” (Givaudan Corporation, priority 1979, dated 1981).

Tests used:
Type in all cases: cell-based
Aspergillus niger [1] = assay: General antimicrobial activity, 5-fold serial dilution test in agar (MIC); settings: 168 h, 28° C., seven days, growth only at lower concentration of range, read-out: minimum inhibitory concentration (MIC), F1
Method: (§1) General antibacterial and antifungal activity was evaluated by a 5-fold serial dilution test in agar. In this test, compounds were prepared as 6% solutions in dimethylformamide or ethanol. The 6% solution was then 5-fold serially diluted in test tubes to give the desired concentrations when mixed with agar and poured into sterile Petri dishes. Tryptone glucose extract agar was used for the bacterial testing; mildew glucose agar for the fungal testing. The bacterial plates were spot inoculated with 24-hour nutrient broth cultures and incubated at 37° C. for 48 hours. The fungal plates were spot inoculated with spore suspensions and incubated at 28° C. for seven days. At the end of the incubation periods, all plates were examined for growth. The minimum inhibitory concentration (MIC) for each organism is expressed in Table I. In the ranges presented, growth is observed only at the lower concentration.
(§2) The activity is presented in Tabular Form (Table I) using the following key.

Aspergillus oryzae = assay: as above; settings: 168 h, 28° C., seven days, growth only at lower concentration of range, read-out: minimum inhibitory concentration (MIC), F2
Method: as §1, §2

Aureobasidium pullulans = assay: as above; settings: 168 h, 28° C., seven days, growth only at lower concentration of range, read-out: minimum inhibitory concentration (MIC), F4
Method: as §1, §2

Bacillus subtilis = assay: as above; settings: 37° C., 48 hours, growth only at lower concentration of range, read-out: minimum inhibitory concentration (MIC), B5
Method: as §1, §2

Escherichia coli = assay: as above; settings: 37° C., 48 hours, growth only at lower concentration of range, read-out: minimum inhibitory concentration (MIC), B2
Method: as §1, §2

Penicillium piscarium = assay: as above; settings: 168 h, 28° C., seven days, growth only at lower concentration of range, read-out: minimum inhibitory concentration (MIC), F3
Method: as §1, §2

Proteus vulgaris = assay: as above; settings: 37° C., 48 hours, growth only at lower concentration of range, read-out: minimum inhibitory concentration (MIC), B4
Method: as §1, §2

Pseudomonas aeruginosa [2] = assay: as above; settings: 37° C., 48 hours, growth only at lower concentration of range, read-out: minimum inhibitory concentration (MIC), B3
Method: as §1, §2

Staphylococcus aureus = assay: as above; settings: 37° C., 48 hours, growth only at lower concentration of range, read-out: minimum inhibitory concentration (MIC), B1
Method: as §1, §2

Aspergillus niger [3] = assay: Utility as a cosmetic preservative (cosmetic lotion); settings: weekly reinoculation
Method: (§3) The 2-Chloro-3-oxobutyramide derivatives are effective cosmetic preservatives. Two-fold serial dilutions of 6% solutions of the 2-haloacetoacetic acid derivatives in dimethylformamide were added to a cosmetic lotion of the following formulation: |Stearic acid 1.4 g |Arlacel 60 (sorbitan |monostearate) 0.7 g |Tween 20 Polyoxethylene |(20) sorbitan |monostearate 1.6 g |Distilled water 94.0 g The lotions were inoculated with both Pseudomonas aeruginosa and Aspergillus niger and incubated at 28° C. At weekly intervals, the lotions were examined for microorganisms by conventional streak-plate methods or by macroscopic observation. The lotions were then reinoculated with the test organisms and reincubated.

Pseudomonas aeruginosa [4] = assay: as above; settings: weekly reinoculation
Method: as §3

Pseudomonas aeruginosa [5] = assay: Utility in water and oil emulsions (3.3% cutting oil emulsions); settings: 28° C., weekly reinoculation, read-out: Minimum Inhibitory Concentration Range
Method: The utility of the 2-chloro-3-oxobutyramide derivatives in water and oil emulsions is illustrated below using a commercially available cutting oil. In running these tests, two-fold serial dilutions of 6% solutions of the compound in dimethylformamide was added to 3.3% cutting oil emulsions. The emulsions were prepared by diluting with water a commercially available cutting oil concentrate. The emulsions were inoculated with a culture of Pseudomonas aeruginosa and incubated at 28° C. on a rotary shaker. At weekly intervals, the emulsions were examined for bacteria by conventional streak-plate methods. The emulsions were then reinoculated with Pseudomonas aeruginosa and reincubated. […] indicate the activity range for that compound.

CCOC(=O)NC(=O)C(Cl)C(C)=O (stereo not drawn) [R1=H, R2=COOC2 H5, N-Carboethoxy-2-chloroacetoacetamide]
4 (125-250 mcg/gm): minimum inhibitory concentration effective in preventing microbial growth (Aspergillus niger [3]; Week 1, 28° C.) | minimum inhibitory concentration effective in preventing microbial growth (Pseudomonas aeruginosa [4]; Week 2, 28° C.) | minimum inhibitory concentration effective in preventing microbial growth (Pseudomonas aeruginosa [4]; Week 3, 28° C.) | minimum inhibitory concentration effective in preventing microbial growth (Pseudomonas aeruginosa [4]; Week 4, 28° C.)
3 (250-500 mcg/gm): minimum inhibitory concentration effective in preventing microbial growth (Aspergillus niger [3]; Week 2, 28° C.) | minimum inhibitory concentration effective in preventing microbial growth (Aspergillus niger [3]; Week 3, 28° C.) | minimum inhibitory concentration effective in preventing microbial growth (Aspergillus niger [3]; Week 4, 28° C.)
125 to 500 µg/mL: MIC (Pseudomonas aeruginosa [5]; Week 4, 3.3% cutting oil emulsion)
63 to 125 µg/mL: MIC (Pseudomonas aeruginosa [5]; Week 2, 3.3% cutting oil emulsion) | MIC (Pseudomonas aeruginosa [5]; Week 3, 3.3% cutting oil emulsion)
32 to 63 µg/mL: MIC (Pseudomonas aeruginosa [5]; Week 1, 3.3% cutting oil emulsion)
76.8 to 384 µg/mL: MIC (Aspergillus niger [1]) | MIC (Aspergillus oryzae) | MIC (Aureobasidium pullulans) | MIC (Bacillus subtilis) | MIC (Escherichia coli) | MIC (Penicillium piscarium) | MIC (Proteus vulgaris) | MIC (Pseudomonas aeruginosa [2]) | MIC (Staphylococcus aureus)
5 (63-125 mcg/gm): minimum inhibitory concentration effective in preventing microbial growth (Pseudomonas aeruginosa [4]; Week 1, 28° C.)
